Data reported in patent publication US7981903B2, “2-[2-{phenylamino}-1H-pyrrolo[2,3-D]pyrimidin-4-yl)amino] benzamide derivatives as IGF-1R inhibitors for the treatment of cancer” (GlaxoSmithKline LLC, priority 2007, dated 2011).

Assays:
[1] = target: T1, NIH-3T3 cells overexpressing human IGF-1R (Homo sapiens, UniProt P08069); assay: IGF-1R cellular autophosphorylation (DELFIA); assay type: cell-based
T1 construct: expressed in transfected cells; host or cells: NIH-3T3 (mouse fibroblasts)
Procedure: NIH-3T3 cells overexpressing human IGF-1R or IR were plated in 96-well plates (10,000 cells/well) in culture media containing 10% fetal bovine serum and incubated at 37° C. in a 5% CO2 incubator. Twenty four hours post-plating, cells were treated with different concentrations of test compounds ranging from 30 uM to 1.5 nM. Two hours after compound addition, cells were stimulated with either human IGF-1 (30 ng/ml) or insulin (3 ug/ml) for 15 minutes. Cell lysates are analyzed for phosphorylated receptors using dissociation enhanced lanthanide fluor-immuno assay (DELFIA) with anti-IGF-1R (MAB391, R&D Systems, Minneapolis, Minn.) or anti-IRβ (sc-711, Santa Cruz Biotechnology, Santa Cruz, Calif.) capture antibody and europium-labeled anti-pTyr antibody (Eu-N1 PT66, Perkin Elmer, Waltham, Mass.) for detection. The fluorescence signal for cells treated with compounds was expressed as percent relative to 100% stimulation (IGF-1 or insulin stimulated signal).

[2] = target: T2, human IR (hIR) (Homo sapiens, UniProt P06213); assay: TR-FRET kinase assay of purified hIR; assay type: biochemical; conditions: activated hIR 0.5 nM, 10 μM ATP, values given as pIC50 category
T2 construct: containing amino acid residues 979-1382 of human IR; made in house; host or cells: Sf9 cells (baculovirus), same process as hIGF1R
Procedure: (§1) Time Resolved Fluorescence Resonance Energy Transfer (TR-FRET) assays were carried out on the exemplified compounds as follows:
(§2) Purity is determined by HPLC. The calculated molecular mass of the peptide is 2216 dalton. Tyrosine phosphorylation by human IGF1R (hIGF1R) or human IR (hIR) occurs as indicated (Y*) in the peptide sequence described. Solid peptide sample is dissolved to approximately 1 mM in DMSO, aliquoted, and stored at −20° C. until use. True peptide concentration is determined by amino acid analysis.
hIR: GST-rTEV-IR(979-1382) containing amino acid residues 979-1382 of human IR (as annotated by NCBI accession number NP_000199) is expressed and purified by the same process as hIGF1R. […] Samples, in 25 mM Tris-HCl, 250 mM NaCl, 5% glycerol, 1 mM DTT, pH 7.5, are stored at −80° C. until use.
(§3) hIR: Activation of GST-rTEV-IGF-1R(957-1367) is achieved by a 5 minute incubation of hIR (2.7 μM final) with 2 mM ATP in 100 mM HEPES, 10 mM MgCL2, 0.1 mg/ml BSA, at room temperature. Autophosphorylation is stopped by addition of EDTA (to 100 mM final). Aliquoted samples are flash frozen in liquid nitrogen and stored at −80° C. until use.
(§4) Assays are performed in 384-well (Greiner, Catalog No. 784076) microtiter plates. Reaction buffer (50 mM HEPES buffer, pH 7.5; 10 mM MgCL2; 3 mM DTT; 1 mM CHAPS; 0.1 mg/ml BSA) for peptide phosphorylation (10 μl volume) contained, in final concentrations, 500 nM biotinylated peptide substrate; 10 μM ATP; and purified, activated hIGF1R or hIR (0.5 nM). Compounds, titrated in DMSO, are evaluated at eleven concentrations ranging from 50 μM to 0.2 nM. […] Reactions are incubated for 1 hour at room temperature and are stopped by a 5 μl addition of EDTA (to 33 mM). A further addition of 5 μl detection reagents (for final 7 nM Streptavidin-APC (Perkin Elmer #CR^130-150), 1 nM Europium-labeled anti-phosphotyrosine monoclonal antibody (PerkinElmer #AD0067), added in reaction buffer (without DTT), is required for signal generation. After 30 minutes, signal is read on PerkinElmer Viewlux microplate imager or Wallac Victor fluorometer.
(§5) The data for compound concentration responses were plotted as % Inhibition, calculated with the data reduction formula 100*(1-[(U1-C2)/(C1-C2)]), versus concentration of compound, where • U is the unknown value, • C1 is the average control value obtained for DMSO only, and • C2 is the average control value obtained for reactions stopped with EDTA at • t=0.
(§6) Data were fitted to the curve described by: y=((Vmax*x)/(K+x)) where • Vmax is the upper asymptote and • K is the IC50.

[3] = target: T3, human IGF1R (hIGF1R) (Homo sapiens, UniProt P08069); assay: TR-FRET kinase assay of purified hIGF1R; assay type: biochemical; conditions: activated hIGF1R 0.5 nM, 10 μM ATP, values given as pIC50 category, read-out: IGF-1R pIC50 (converted)
T3 construct: containing amino acid residues 957-1367 of human IGF1R; made in house; host or cells: Sf9 cells (baculovirus)
Procedure: as §1, §2
hIGF1R: GST-rTEV-IGF-1R(957-1367) containing amino acid residues 957-1367 of human IGF1R (as annotated by National Center for Biotechnology Information (NCBI) accession number NP_000866) is purified from a baculovirus expression system in Sf9 cells using Glutathione Sepharose 4FF column chromatography followed by Sephadex-200 size exclusion column chromatography. […] Samples, in 25 mM Tris-HCl, 250 mM NaCl, 5% glycerol, 1 mM DTT, pH 7.5, are stored at −80° C. until use.
as §3, with “hIGF1R: Activation” for “hIR: Activation”, “a 4” for “a 5”, “of hIGF1R” for “of hIR”, “in 50” for “in 100”, “HEPES, 20” for “HEPES, 10”
as §4, §5, §6

[4] = target: ALK (Homo sapiens, UniProt Q9UM73); assay: ALK enzyme assay (HTRF); assay type: biochemical; conditions: 0.25 nM ALK, 15.0 μM ATP, values given as pIC50 category
Procedure: The method measures the ability of the isolated enzyme to catalyse the transfer of the gamma-phosphate from ATP onto the tyrosine residue of a biotinylated synthetic peptide. The extent of tyrosine phosphorylation was measured using an anti-phosphotyrosine antibody, and quantified by homogenous time-resolved fluorescence (HTRF) assay purchased from CisBio (62TK0PEJ).
Reactions were performed in black 384-well polystyrene low volume plates in a final volume of 5 μl.
The reactions were then started by adding the substrate mix. The reactions were allowed to proceed for 120 minutes at 20° C. The reactions were then terminated by the addition of 5 μl HTRF detection mix to each well. The final concentrations of the detection reagents were: 50 mM HEPES (pH7.0); 0.1% BSA; 0.8 M KF; 20 mM EDTA; 1 mM CHAPS; TK-antibody Europium Cryptate; and 41 nM streptavidin-XL665. Assay plates were left unsealed, stacked and incubated at 20° for 60 minutes. Quantification of activity was achieved by counting in an Envision Counter (PerkinElmer).
Compounds under analysis were dissolved in Me2SO to 1.0 mM and serially diluted 1 to 3 with Me2SO through twelve dilutions. 0.05 μl of each concentration was transferred to the corresponding well of an assay plate. This creates a final compound concentration range from 0.00017 to 10 μM.
The data for dose responses were plotted as % Inhibition calculated with the data reduction formula 100*(1-(U1-C2)/(C1-C2)) versus concentration of compound where U is the unknown value, C1 is the average control value obtained for 1% DMSO, and C2 is the average control value obtained for 0.1 M EDTA. Data were fitted with a curve described by:
[formula] where A is the minimum y, B is the maximum y concentration [M], D is the slope factor, and x is the log10 of the compound.

T1 sequence (P08069 31-1367): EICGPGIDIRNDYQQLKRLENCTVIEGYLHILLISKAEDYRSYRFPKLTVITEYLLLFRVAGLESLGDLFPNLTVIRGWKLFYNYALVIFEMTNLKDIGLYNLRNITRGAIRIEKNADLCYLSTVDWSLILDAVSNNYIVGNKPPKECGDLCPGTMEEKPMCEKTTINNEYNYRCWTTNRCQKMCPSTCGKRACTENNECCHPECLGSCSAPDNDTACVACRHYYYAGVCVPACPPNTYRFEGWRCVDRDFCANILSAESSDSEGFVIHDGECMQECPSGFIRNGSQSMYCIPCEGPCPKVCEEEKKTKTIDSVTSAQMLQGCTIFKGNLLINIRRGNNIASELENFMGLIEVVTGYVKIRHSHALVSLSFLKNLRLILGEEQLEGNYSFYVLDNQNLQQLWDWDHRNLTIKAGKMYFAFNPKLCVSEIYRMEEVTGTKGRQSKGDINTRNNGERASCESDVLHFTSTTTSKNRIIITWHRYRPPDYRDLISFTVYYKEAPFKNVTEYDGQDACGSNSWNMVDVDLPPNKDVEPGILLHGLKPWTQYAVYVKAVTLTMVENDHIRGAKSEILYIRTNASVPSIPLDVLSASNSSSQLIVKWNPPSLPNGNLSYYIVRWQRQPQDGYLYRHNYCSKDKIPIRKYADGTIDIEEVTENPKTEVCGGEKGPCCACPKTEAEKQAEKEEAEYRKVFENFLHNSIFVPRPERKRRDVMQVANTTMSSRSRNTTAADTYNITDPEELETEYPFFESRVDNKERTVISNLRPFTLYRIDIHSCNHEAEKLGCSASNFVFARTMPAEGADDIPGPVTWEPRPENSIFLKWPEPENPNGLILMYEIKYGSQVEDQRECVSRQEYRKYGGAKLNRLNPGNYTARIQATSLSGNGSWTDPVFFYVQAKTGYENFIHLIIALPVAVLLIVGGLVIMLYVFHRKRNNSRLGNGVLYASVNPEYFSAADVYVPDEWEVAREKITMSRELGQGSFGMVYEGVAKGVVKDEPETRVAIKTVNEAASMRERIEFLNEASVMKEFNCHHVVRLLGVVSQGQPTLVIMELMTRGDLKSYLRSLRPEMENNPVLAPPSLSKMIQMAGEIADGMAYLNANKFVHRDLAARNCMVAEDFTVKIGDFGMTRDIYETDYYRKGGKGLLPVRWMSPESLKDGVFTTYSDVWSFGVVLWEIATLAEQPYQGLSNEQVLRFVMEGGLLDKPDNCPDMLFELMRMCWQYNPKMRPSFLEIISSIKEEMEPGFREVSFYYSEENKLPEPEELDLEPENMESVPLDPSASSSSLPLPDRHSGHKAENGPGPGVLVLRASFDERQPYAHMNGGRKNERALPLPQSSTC
ALK, sequence (Q9UM73 19-1620): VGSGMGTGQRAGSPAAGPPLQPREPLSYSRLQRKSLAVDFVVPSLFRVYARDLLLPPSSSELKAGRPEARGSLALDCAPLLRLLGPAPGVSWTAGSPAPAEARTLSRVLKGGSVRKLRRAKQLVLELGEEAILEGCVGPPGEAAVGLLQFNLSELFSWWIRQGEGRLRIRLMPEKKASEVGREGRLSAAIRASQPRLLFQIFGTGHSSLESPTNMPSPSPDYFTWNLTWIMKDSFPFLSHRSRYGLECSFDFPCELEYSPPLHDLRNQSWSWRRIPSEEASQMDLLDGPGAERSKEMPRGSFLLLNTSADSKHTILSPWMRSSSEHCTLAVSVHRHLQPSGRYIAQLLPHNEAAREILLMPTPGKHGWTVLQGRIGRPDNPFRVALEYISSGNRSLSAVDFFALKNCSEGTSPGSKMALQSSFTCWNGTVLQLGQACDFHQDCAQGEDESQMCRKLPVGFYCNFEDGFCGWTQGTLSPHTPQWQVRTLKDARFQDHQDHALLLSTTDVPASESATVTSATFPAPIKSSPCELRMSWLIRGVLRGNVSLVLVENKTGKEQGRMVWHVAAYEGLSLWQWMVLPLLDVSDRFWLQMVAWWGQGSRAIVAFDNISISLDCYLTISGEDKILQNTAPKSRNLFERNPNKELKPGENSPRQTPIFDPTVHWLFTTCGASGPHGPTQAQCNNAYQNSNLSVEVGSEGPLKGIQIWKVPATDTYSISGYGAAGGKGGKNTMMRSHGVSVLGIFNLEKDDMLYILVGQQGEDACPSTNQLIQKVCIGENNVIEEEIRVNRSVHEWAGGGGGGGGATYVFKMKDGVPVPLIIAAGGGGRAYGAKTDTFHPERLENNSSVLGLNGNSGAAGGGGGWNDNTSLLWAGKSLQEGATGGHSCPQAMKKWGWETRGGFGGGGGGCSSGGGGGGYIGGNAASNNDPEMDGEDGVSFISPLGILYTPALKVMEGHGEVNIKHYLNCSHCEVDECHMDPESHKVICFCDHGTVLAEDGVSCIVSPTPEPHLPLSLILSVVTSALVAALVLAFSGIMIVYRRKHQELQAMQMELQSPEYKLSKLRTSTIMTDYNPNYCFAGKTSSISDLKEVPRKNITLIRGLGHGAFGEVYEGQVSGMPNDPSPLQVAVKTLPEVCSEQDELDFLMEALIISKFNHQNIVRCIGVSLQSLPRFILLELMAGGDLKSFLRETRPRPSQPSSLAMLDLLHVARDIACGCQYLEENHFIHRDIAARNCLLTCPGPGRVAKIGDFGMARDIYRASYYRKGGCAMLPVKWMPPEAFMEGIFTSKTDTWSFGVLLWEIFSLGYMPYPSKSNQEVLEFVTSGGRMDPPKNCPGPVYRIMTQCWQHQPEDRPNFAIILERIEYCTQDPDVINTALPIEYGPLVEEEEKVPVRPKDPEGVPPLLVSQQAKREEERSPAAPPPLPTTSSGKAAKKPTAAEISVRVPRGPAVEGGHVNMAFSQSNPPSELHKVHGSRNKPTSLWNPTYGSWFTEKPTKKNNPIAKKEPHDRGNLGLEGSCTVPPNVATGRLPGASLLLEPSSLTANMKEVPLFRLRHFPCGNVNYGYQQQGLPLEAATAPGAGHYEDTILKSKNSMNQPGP
T2 sequence (P06213 979-1382): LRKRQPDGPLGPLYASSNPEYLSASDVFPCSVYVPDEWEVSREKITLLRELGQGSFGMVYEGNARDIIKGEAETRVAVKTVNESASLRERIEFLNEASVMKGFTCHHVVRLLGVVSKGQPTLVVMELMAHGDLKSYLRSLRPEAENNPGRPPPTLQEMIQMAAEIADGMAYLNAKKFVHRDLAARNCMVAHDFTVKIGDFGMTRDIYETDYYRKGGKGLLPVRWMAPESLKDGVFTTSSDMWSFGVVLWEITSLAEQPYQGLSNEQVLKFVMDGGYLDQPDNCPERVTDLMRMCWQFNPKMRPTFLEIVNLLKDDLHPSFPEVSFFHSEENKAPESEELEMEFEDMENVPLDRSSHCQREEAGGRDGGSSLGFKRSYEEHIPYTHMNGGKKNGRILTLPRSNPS
T3 sequence (P08069 957-1367): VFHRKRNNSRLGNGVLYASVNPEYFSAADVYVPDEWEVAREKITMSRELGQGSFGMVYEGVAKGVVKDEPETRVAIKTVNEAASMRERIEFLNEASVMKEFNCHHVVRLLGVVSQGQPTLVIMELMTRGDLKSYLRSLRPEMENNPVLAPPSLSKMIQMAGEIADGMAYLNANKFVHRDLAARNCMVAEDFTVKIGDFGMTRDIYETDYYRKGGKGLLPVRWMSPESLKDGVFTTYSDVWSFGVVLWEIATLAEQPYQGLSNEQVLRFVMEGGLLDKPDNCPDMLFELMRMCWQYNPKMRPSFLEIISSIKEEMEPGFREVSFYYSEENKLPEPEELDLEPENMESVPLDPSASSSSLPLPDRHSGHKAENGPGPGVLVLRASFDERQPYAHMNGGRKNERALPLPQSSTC

SMILES | IC50 [1] | IC50 [2] | IC50 [3] | IC50 [4]
CNC(=O)c1ccccc1Nc1nc(Nc2ccc(C3CCCN(C)C3)cc2OC)nc2[nH]ccc12 (stereo not drawn) [Example 22, N-methyl-2-[(2-{[2-(methyloxy)-4-(1-methyl-3-piperidinyl)phenyl]amino}-1H-pyrrolo[2,3-d]pyrimidin-4-yl)amino]benzamide] | 100 to 500 nM | 0.251 to 1 nM | 1.26 to 3.98 nM | 0.251 to 1 nM
COc1cc(C2CCCN(C)C2)ccc1Nc1nc(Nc2ccccc2C(N)=O)c2cc[nH]c2n1 (stereo not drawn) [Example 5, 2-[(2-{[2-(methyloxy)-4-(1-methyl-3-piperidinyl)phenyl]amino}-1H-pyrrolo[2,3-d]pyrimidin-4-yl)amino]benzamide] | < 100 nM | 0.251 to 1 nM | 0.251 to 1 nM | 0.251 to 1 nM
CCCN1CCC=C(c2ccc(Nc3nc(Nc4cc(F)c(F)cc4C(N)=O)c4cc[nH]c4n3)c(OC)c2)C1 [Example 95, 4,5-difluoro-2-[(2-{[2-(methyloxy)-4-(1-propyl-1,2,5,6-tetrahydro-3-pyridinyl)phenyl]amino}-1H-pyrrolo[2,3-d]pyrimidin-4-yl)amino]benzamide] | 100 to 500 nM | 0.251 to 1 nM | 0.251 to 1 nM | 0.251 to 1 nM
COc1cc(N2CCN(C(C)C)CC2)ccc1Nc1nc(Nc2cccc(C)c2C(N)=O)c2cc[nH]c2n1 [Example 31, 2-methyl-6-[(2-{[4-[4-(1-methylethyl)-1-piperazinyl]-2-(methyloxy)phenyl]amino}-1H-pyrrolo[2,3-d]pyrimidin-4-yl)amino]benzamide] | > 500 nM | 5.01 to 158 nM | 5.01 to 200 nM | 5.01 to 200 nM
CNC(=O)c1c(F)cccc1Nc1nc(Nc2cc3c(cc2OC)C[C@@H](C)N3C(=O)CN(C)C)nc2[nH]ccc12 [Example 250, 2-[(2-{[(2R)-1-(N,N-dimethylglycyl)-2-methyl-5-(methyloxy)-2,3-dihydro-1H-indol-6-yl]amino}-1H-pyrrolo[2,3-d]pyrimidin-4-yl)amino]-6-fluoro-N-methylbenzamide] | > 500 nM | 5.01 to 158 nM | 5.01 to 200 nM | 5.01 to 200 nM
Cc1ccc(NC(=O)CN(C)C)cc1Nc1nc(Nc2cc(F)ccc2C(N)=O)c2cc[nH]c2n1 [Example 85, 2-{[2-({5-[(N,N-dimethylglycyl)amino]-2-methylphenyl}amino)-1H-pyrrolo[2,3-d]pyrimidin-4-yl]amino}-4-fluorobenzamide] | > 500 nM | 0.251 to 1 nM | 1.26 to 3.98 nM | 5.01 to 200 nM
CNC(=O)c1ccccc1Nc1nc(Nc2ccc(C3=CCCN(C)C3)cc2OC)nc2[nH]ccc12 [Example 21, N-methyl-2-[(2-{[2-(methyloxy)-4-(1-methyl-1,2,5,6-tetrahydro-3-pyridinyl)phenyl]amino}-1H-pyrrolo[2,3-d]pyrimidin-4-yl)amino]benzamide] | 100 to 500 nM | 0.251 to 1 nM | 1.26 to 3.98 nM | 0.251 to 1 nM
Cc1ccc(NC(=O)CN(C)C)cc1Nc1nc(Nc2ccccc2C(=O)NCCO)c2cc[nH]c2n1 [Example 26, 2-{[2-({5-[(N,N-dimethylglycyl)amino]-2-methylphenyl}amino)-1H-pyrrolo[2,3-d]pyrimidin-4-yl]amino}-N-(2-hydroxyethyl)benzamide] | > 500 nM | 1.26 to 3.98 nM | 5.01 to 200 nM | 5.01 to 200 nM
COc1cc(N2CCN(C(C)C)CC2)ccc1Nc1nc(Nc2cc(F)c(F)cc2C(N)=O)c2cc[nH]c2n1 [Example 102, 4,5-difluoro-2-[(2-{[4-[4-(1-methylethyl)-1-piperazinyl]-2-(methyloxy)phenyl]amino}-1H-pyrrolo[2,3-d]pyrimidin-4-yl)amino]benzamide] | < 100 nM | 0.251 to 1 nM | 0.251 to 1 nM | 0.251 to 1 nM
COc1cc(C2=CCCN(C)C2)ccc1Nc1nc(Nc2ccccc2C(N)=O)c2cc[nH]c2n1 [Example 4, 2-[(2-{[2-(methyloxy)-4-(1-methyl-1,2,5,6-tetrahydro-3-pyridinyl)phenyl]amino}-1H-pyrrolo[2,3-d]pyrimidin-4-yl)amino]benzamide] | < 100 nM | 0.251 to 1 nM | 0.251 to 1 nM | 0.251 to 1 nM
COc1cc(C2=CCCN(C(C)C)C2)ccc1Nc1nc(Nc2ccccc2C(N)=O)c2cc[nH]c2n1 [Example 6, 2-[(2-{[4-[1-(1-methylethyl)-1,2,5,6-tetrahydro-3-pyridinyl]-2-(methyloxy)phenyl]amino}-1H-pyrrolo[2,3-d]pyrimidin-4-yl)amino]benzamide] | < 100 nM | 0.251 to 1 nM | 0.251 to 1 nM | 0.251 to 1 nM
Cc1ccc(NC(=O)CN(C)C)cc1Nc1nc(Nc2ccccc2C(=O)NO)c2cc[nH]c2n1 [Example 28, 2-{[2-({5-[(N,N-dimethylglycyl)amino]-2-methylphenyl}amino)-1H-pyrrolo[2,3-d]pyrimidin-4-yl]amino}-N-hydroxybenzamide] | > 500 nM | 0.251 to 1 nM | 0.251 to 1 nM | 0.251 to 1 nM
